The values below come from article PMC7873251, “CXCR7 ameliorates myocardial infarction as a β-arrestin-biased receptor” (Scientific Reports, 2021).

pEC50: −log10 of the molar value. Entries after “also recorded” stand apart in the source; their conditions may differ.

One test deals with T1, human CXCR7 (Homo sapiens, UniProt P25106).
T1 construct: expressed in transfected cells; host or cells: HEK293 cells (ATCC CRL-11268)
The test can be described thus: β-arrestin recruitment assay of CXCR7 (luminescence, HEK293). The conditions noted are these: HEK293 cells transfected with human β-arrestin-2-ω and human CXCR7-α, 37 °C for 90 min, then Gal-Screen 25 °C 90 min, n = 3 independent, read-out: EC50 for coupling of CXCR7 with β-arrestin (β-arrestin recruitment). Format: cell-based.

Another test deals with ERK. Description: ERK phosphorylation (pERK/tERK immunoblot) in neonatal rat cardiomyocytes (NRCMs). Format: cell-based, rat (Wistar). To be noted: 30-min pretreatment with barbadin (50 M [sic]), then 10 min TC14012 (printed 3 M), n = 4. As to the method: NRCMs and neonatal rat fibroblasts were prepared from 1-day-old Wistar rats (Takasugi Experimental Animal Supply Co., Saitama, Japan), as previously described. Briefly, cardiac cells were dispersed by digestion with collagenase type II (Worthington Biochemical, Lakewood, NJ, USA) and incubated at 37 °C for 80 min to divide the supernatant cells, which are rich in cardiomyocytes, and the attached cells, which are rich in cardiac fibroblasts. The supernatant NRCMs were cultured on gelatin-coated dishes at 37 °C in Dulbecco’s modified Eagle’s medium (DMEM; Nacalai Tesque, Kyoto, Japan) supplemented with 10% fetal calf serum for 36 h and confirmed on the basis of beating activity. After 12 h of starvation, the NRCMs were treated with TC14012 (Tocris Bioscience, Bristol, UK). Attached cells rich in cardiac fibroblasts were subcultured three times to increase their purity. We added vehicle (DMSO) or barbadin (MedChemExpress, New Jersey, USA) 30 min before stimulation.
Western blotting was performed as previously described. […] Signals were detected with the Pierce ECL Prime system (GE Healthcare) in a LAS4000 instrument (GE Healthcare). Band densities were analyzed using the ImageJ software (National Institutes of Health, Bethesda, MD, USA).

The test system of the next test is heart failure patients. To be noted: cited from earlier work. From the text:
(§1) There are many seven-transmembrane receptors (7TMRs), such as adrenergic receptors and angiotensin II receptors, in the heart, and they play various critical roles in cardiac function and morphology[1],[2]. […] The roles of ACKRs are largely unknown, and only ACKR3, also known as CXC chemokine receptor 7 (CXCR7), has be ...

The test system of another test is adrenergic receptors. The conditions noted are these: cited from earlier work.
Source text: as §1

Test [1] relates to CC chemokine receptor 2-positive macrophages. To be noted: pressure-overload heart failure model; cited from earlier work. From the text:
(§2) Recently, the importance of chemokines and their receptors in cardiovascular diseases has been pointed out.

A further test concerns CXCR4. The conditions noted are these: via CXCR4; cited from earlier work.
Source text: as §2

Test [2] concerns ERK (via rat CXCR7 expression plasmid). Description: ERK phosphorylation (pERK/tERK immunoblot) in CXCR7-transfected HEK293 cells. The conditions noted are these: CXCL12 100 nM. Format: cell-based, HEK293 cells (human embryonic kidney). How it is done:
HEK293 cells (ATCC CRL-11268) were used for the β-arrestin recruitment assay, as previously described. In brief, HEK293 cells were transfected with human β-arrestin-2-ω and human CXCR7-α. […] Luminescence was measured in an ARVO X3 plate reader (PerkinElmer, Waltham, MA, USA). In addition, HEK293 cells were transfected with a rat CXCR7 expression plasmid using Lipofectamine 3000 (Thermo Fisher Scientific). The CXCR7 expression plasmid was synthesized by amplifying a rat Cxcr7 mRNA sequence (RefSeq: NM_053352.1) with a FLAG tag (forward primer: 5′-[…]-3′, reverse primer: 5′-[…]-3′) from cDNA prepared from total RNA isolated from neonatal rat heart and inserting it in pShuttle-CMV (#16403, Addgene, Watertown, MA, USA). The cells were cultured for 36 h.
Western blotting was performed as previously described. Tissues and cells were homogenized in ice-cold RIPA buffer containing protease inhibitor (cOmplete Protease Inhibitor Cocktail, Merck) and phosphatase inhibitor (PhosSTOP, Sigma). Supernatants were collected after centrifugation and mixed with an equal amount of loading buffer (125 mM Tris–HCl pH 6.8, 30% glycerol, 10% SDS, and 0.6 M DTT). […] Signals were detected with the Pierce ECL Prime system (GE Healthcare) in a LAS4000 instrument (GE Healthcare). Band densities were analyzed using the ImageJ software (National Institutes of Health, Bethesda, MD, USA).

Test [3] deals with type 1 angiotensin II receptor. To be noted: cited from earlier work. From the text: There are many seven-transmembrane receptors (7TMRs), such as adrenergic receptors and angiotensin II receptors, in the heart, and they play various critical roles in cardiac function and morphology[1],[2]. […] The roles of ACKRs are largely unknown, and only ACKR3, also known as CXC chemokine receptor 7 (CXCR7), has be ... || There are numerous reports on biased agonists. Biased agonism occurs when two ligands share one receptor, but transmit different signals. […] However, there are a few natural β-arrestin-biased agonists and very few 7TMRs that activate intracellular signaling only through β-arr ...

Another test deals with cardiac hypertrophy. To be noted: cited from earlier work. An excerpt:
There are numerous reports on biased agonists. Biased agonism occurs when two ligands share one receptor, but transmit different signals. […] However, there are a few natural β-arrestin-biased agonists and very few 7TMRs that activate intracellular signaling only through β-arr ...

In test [4] the test system is CC chemokine receptor-like 2 (CCRL2). To be noted: cited from earlier work. From the text: In this study, we focused on CXCR7 because of its abundant expression in the heart and its unique character as a 7TMR. […] As a 7TMR, the β1-adrenergic receptor plays critical roles in the heart[21],[22]; however, its expression level was tenfold lower than that of Cxcr7.

T1 sequence (P25106 whole entry): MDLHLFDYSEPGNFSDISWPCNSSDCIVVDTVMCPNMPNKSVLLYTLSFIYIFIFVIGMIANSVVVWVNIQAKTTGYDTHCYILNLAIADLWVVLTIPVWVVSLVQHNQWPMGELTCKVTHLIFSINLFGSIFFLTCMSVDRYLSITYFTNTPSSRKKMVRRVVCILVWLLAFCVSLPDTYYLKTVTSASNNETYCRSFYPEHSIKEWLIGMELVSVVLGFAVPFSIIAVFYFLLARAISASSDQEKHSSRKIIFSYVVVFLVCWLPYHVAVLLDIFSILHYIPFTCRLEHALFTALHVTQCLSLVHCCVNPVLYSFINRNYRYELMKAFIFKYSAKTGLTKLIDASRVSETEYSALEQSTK
T1 sequence (P32121 whole entry partner): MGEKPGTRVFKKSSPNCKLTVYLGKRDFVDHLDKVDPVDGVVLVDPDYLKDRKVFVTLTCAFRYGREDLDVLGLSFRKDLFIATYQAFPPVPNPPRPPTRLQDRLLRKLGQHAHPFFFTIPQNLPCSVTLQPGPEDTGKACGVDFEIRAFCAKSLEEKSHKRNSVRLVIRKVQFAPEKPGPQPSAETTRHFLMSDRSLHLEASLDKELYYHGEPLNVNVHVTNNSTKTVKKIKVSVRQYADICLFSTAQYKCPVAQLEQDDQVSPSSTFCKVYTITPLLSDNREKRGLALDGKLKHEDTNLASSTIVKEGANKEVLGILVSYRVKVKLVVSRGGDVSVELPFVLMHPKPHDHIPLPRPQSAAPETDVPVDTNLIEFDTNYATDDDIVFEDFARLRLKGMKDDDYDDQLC
Method for human CXCR7: HEK293 cells (ATCC CRL-11268) were used for the β-arrestin recruitment assay, as previously described[52]. In brief, HEK293 cells were transfected with human β-arrestin-2-ω and human CXCR7-α. […] Luminescence was measured in an ARVO X3 plate reader (PerkinElmer, Waltham, MA, USA).

Consider `N=C(N)NCCC[C@H](NC(=O)[C@@H]1CSSC[C@H](NC(=O)[C@H](Cc2ccc3ccccc3c2)NC(=O)[C@H](CCCNC(=N)N)NC(=O)[C@@H](N)CCCNC(=N)N)C(=O)N[C@@H](Cc2ccc(O)cc2)C(=O)N[C@@H](CCCNC(N)=O)C(=O)N[C@@H](CCCCN)C(=O)N[C@H](CCCNC(N)=O)C(=O)N2CCC[C@H]2C(=O)N[C@@H](Cc2ccc(O)cc2)C(=O)N[C@@H](CCCNC(=N)N)C(=O)N[C@@H](CCCNC(N)=O)C(=O)N1)C(N)=O` [TC14012], for which the pEC50 on human CXCR7 is 7.32. For the molecule `Nn1cnc2scc(-c3ccc(Cc4ccccc4)cc3)c2c1=O` [barbadin], the “inhibition of TC14012-induced ERK activation” value in the test on ERK is listed as “abolished TC14012-induced ERK activation; also recorded: completely suppressed”. As for `COc1ccccc1OCCNCC(O)COc1cccc2[nH]c3ccccc3c12` (centres unmarked) [carvedilol], the “effectiveness in heart failure patients” value in the test on heart failure patients is on record as “very effective for the treatment of heart failure patients”. Further, the “adrenergic receptor blockade and β-arrestin signaling” value with adrenergic receptors is on record as “not only blocks adrenergic receptors, but also activates cardioprotective signals, including ERK, through β-arrestin”.

As for “CC chemokine ligand 2: chemokine that induced accumulation of CC chemokine receptor 2-positive macrophages”, in test [1], the “accumulation of CCR2-positive macrophages” value is given as “induced the accumulation of CC chemokine receptor 2-positive macrophages”.

On to “CXCL12: a natural ligand of CXCR4 and CXCR7”, for which the “protection of the heart from hypoxia” value in the test on CXCR4 was “protects the heart from hypoxia”. The “time of peak ERK activity after stimulation” value in [2] (HEK293 cells with CXCR7 expression plasmid, n = 4) is on record as 5 min. Also, in [2] (HEK293 cells, rat CXCR7 expression plasmid (various amounts), n = 3), the “ERK activation (pERK/tERK)” value is on record as “activated ERK in a CXCR7 expression plasmid-dose-dependent manner”. For the molecule “angiotensin-(1-7): a metabolite of angiotensin II”, the “G protein versus β-arrestin activation compared with angiotensin II” value in test [3] was “binds to type 1 angiotensin II receptor, but fails to activate G proteins, and selectively promotes β-arrestin activation compared with angiotensin II”. For the same molecule, the cardiac hypertrophy entry with cardiac hypertrophy was “attenuates cardiac hypertrophy”. For chemerin: ligand of CCRL2, in test [4], the “binding to CCRL2” value was “it does not bind to chemokines, but to chemerin”.
